In test [1] the test system is Ca++/CaM dependent Kinase II. Kind of test: Synapsin I phosphorylation at sites 2,3 by Ca++/Calmodulin kinase (Table I A). It is filed as biochemical. The conditions noted are these: for Inhibitory activity against CaM-dependent kinases compared with cAMP-dependent kinase or protein kinase C: from data in Table I.
The test system of a further test is CaM-PDE. The settings on record: background, cited from earlier work; for Concentration range inhibiting CaM-dependent activities of CaM-PDE: Nakanishi et al.
The test system of the next test is CaM KI. Kind of test: Synapsin I phosphorylation at site 1 by Ca++/Calmodulin kinase (Table I A). It is filed as biochemical.
Test [2] concerns Ca2+/CaM-sensitive phosphodiesterase. Briefly: Inhibition of Ca2+/CaM-sensitive phosphodiesterase (FIGS. 1-4). The settings on record: for Inhibitory effects on CaM-mediated enzyme activity: enantiomers compared with KS-501 and KS-502. It is filed as biochemical. From the text: FIG. 1 is a graph showing the effect of various concentrations of KS-501 on the activity of Ca^2+ /CaM-dependent phosphodiesterase.
FIG. 2 is a graph showing the effect of various concentrations of ent-KS-501 on the activity of Ca^2+ /CaM-dependent phosphodiesterase.
FIG. 3 is a graph showing the effect of various concentrations of KS-502 on the activity of Ca^2+ /CaM-dependent phosphodiesterase.
FIG. 4 is a graph showing the effect of various concentrations of ent-KS-502 on the activity of Ca^2+ /CaM-dependent phosphodiesterase.

A further test deals with PKC. Kind of test: Synapsin I phosphorylation by PKC, Ca++/PSD (Table I B). It is filed as biochemical. From the text:
(§1) KS-501 & ent-KS-501 as Inhibitors of Ca++/Calmodulin PKC PKA
(§2) The results represent the mean of 3 experiments
Therefore in the reaction of CaMK or PKC, PKA inhibitor is included in th
In vitro PKC is able to phosphorylate Synapsin I at all 3 serine sites.

A further test concerns protein kinase C. The conditions noted are these: background; cited from earlier work.
For another test, the system named is cAMP dependent kinase. Briefly: Synapsin I phosphorylation by PKA, cAMP (Table I C). It is filed as biochemical.
From the text: as §1, §2
Site 1 is phosphorylated by both CaM KI and cAMP dependent kinase.
reaction mix. And in the reaction of PKA, EGTA is included.

Setting [3] is: Basal, compound 10 μM, basal control 0.016, mean of 3 experiments.
Setting [4] is: Basal, compound 40 μM, basal control 0.016.
[5] abbreviates: Ca++/CaM, compound 10 μM, Ca++ CaM 3 μg control 0.125.
Setting [6] is: Ca++/CaM, compound 40 μM, Ca++ CaM 3 μg control 0.125.
Setting [7] is: Basal, compound 10 μM, basal control 0.022.
Where [8] appears, read: Basal, compound 40 μM, basal control 0.022.
Setting [9] is: Ca++/CaM, compound 10 μM, Ca++ CaM 3 μg control 0.049.
Setting [10] is: Ca++/CaM, compound 40 μM, Ca++ CaM 3 μg control 0.049.
Setting [11] is: Basal, compound 10 μM, basal control 0.016.
The mark [12] stands for this setting: Basal, compound 10 μM, basal control 0.018.
The mark [13] stands for this setting: Basal, compound 40 μM, basal control 0.018.
[14] abbreviates: Ca++/PSD, compound 10 μM, Ca++ PSD control 0.045.
Where [15] appears, read: Ca++/PSD, compound 10 μM, Ca++ PSD control 0.079.
The mark [16] stands for this setting: Ca++/PSD, compound 40 μM, Ca++ PSD control 0.045.
The mark [17] stands for this setting: Ca++/PSD, compound 40 μM, Ca++ PSD control 0.079.
The mark [18] stands for this setting: Basal, compound 10 μM, basal control 0.007.
[19] abbreviates: Basal, compound 10 μM, basal control 0.028.
Where [20] appears, read: Basal, compound 40 μM, basal control 0.007.
Setting [21] is: Basal, compound 40 μM, basal control 0.028.
The mark [22] stands for this setting: cAMP, compound 10 μM, cAMP 1 μM control 0.008.
Where [23] appears, read: cAMP, compound 10 μM, cAMP 1 μM control 0.041.
[24] abbreviates: cAMP, compound 40 μM, cAMP 1 μM control 0.008.
The mark [25] stands for this setting: cAMP, compound 40 μM, cAMP 1 μM control 0.041.

Each structure is given as a SMILES string.

This is an account of results in US5386019A, “Synthesis of inhibitors of calmodulin-mediated enzymes including KS-501, KS-502 and their enantiomers” (Yale University, priority 1992, dated 1995).

As to `CCCCCCCc1cc(O)cc(OC(=O)c2c(CCCCCCC)cc(O)cc2O[C@@H]2O[C@@H]([C@H](O)CO)[C@H](O)[C@H]2O)c1` [KS-501], the “Concentration range inhibitory of CaM-sensitive Kinase II” value in test [1] fell in the range of 10 to 40 µM. The “Phosphorylation of Synapsin I site 2,3” value in test [1] (setting [3]) came out at 0.017 pmole/mg protein/min; in test [1] (setting [4]) it was 0.015 pmole/mg protein/min; in test [1] (setting [5]), 0.087 pmole/mg protein/min; in test [1] (setting [6]), 0.012 pmole/mg protein/min; in the test with PKC (setting [11]), 0.015 pmole/mg protein/min; in the test with PKC (setting [4]), 0.015 pmole/mg protein/min. Moreover, the “Phosphorylation of Synapsin I site 2,3” value is 0.061 pmole/mg protein/min in the test on PKC (setting [15]); 0.030 pmole/mg protein/min in the test on PKC (setting [17]); 0.008 pmole/mg protein/min with cAMP dependent kinase (setting [18]); 0.007 pmole/mg protein/min with cAMP dependent kinase (setting [20]); 0.008 pmole/mg protein/min with cAMP dependent kinase (setting [22]); 0.009 pmole/mg protein/min in the test with cAMP dependent kinase (setting [24]). In test [1], the “Inhibitory activity against CaM-dependent kinases compared with cAMP-dependent kinase or protein kinase C” value is “more inhibitory activity against CaM-dependent kinases than against cAMP-dependent kinase or protein kinase C”. Further, the “Concentration range inhibiting CaM-dependent activities of CaM-PDE” value in the test with CaM-PDE was 1 to 5 µM. For the same molecule, in the test on CaM-PDE, the “Concentrations required to inhibit CaM-independent activities” value is “Much higher concentrations”. For the same molecule, the “Phosphorylation of Synapsin I site 1” value turned out to be 0.025 pmole/mg protein/min in the test with CaM KI (setting [7]); 0.017 pmole/mg protein/min in the test with CaM KI (setting [8]); 0.054 pmole/mg protein/min in the test with CaM KI (setting [9]); 0.011 pmole/mg protein/min in the test on CaM KI (setting [10]); 0.020 pmole/mg protein/min in the test on PKC (setting [12]); 0.016 pmole/mg protein/min with PKC (setting [13]). In addition, the “Phosphorylation of Synapsin I site 1” value with PKC (setting [14]) is 0.041 pmole/mg protein/min; with PKC (setting [16]) it was 0.017 pmole/mg protein/min; in the test on cAMP dependent kinase (setting [19]), 0.033 pmole/mg protein/min; in the test with cAMP dependent kinase (setting [21]), 0.015 pmole/mg protein/min; with cAMP dependent kinase (setting [23]), 0.049 pmole/mg protein/min; in the test with cAMP dependent kinase (setting [25]), 0.025 pmole/mg protein/min. Also, the “Concentration range inhibitory of Ca2+/CaM-sensitive phosphodiesterase” value in test [2] was 1 to 2 µM. The “Effect on protein kinase C” value in the test with protein kinase C is “no effect”.

On to `CCCCCCCc1cc(OC(=O)c2c(CCCCCCC)cc(O)cc2O[C@@H]2O[C@@H]([C@H](O)CO)[C@H](O)[C@H]2O)cc(O)c1C(=O)O` [KS-502], for which, in the test with CaM-PDE, the “Concentration range inhibiting CaM-dependent activities of CaM-PDE” value was 1 to 5 µM and the “Concentrations required to inhibit CaM-independent activities” value is “Much higher concentrations”. Further, in test [2], the “Concentration range inhibitory of Ca2+/CaM-sensitive phosphodiesterase” value is recorded as “approximately 10 μM”. In addition, the “Effect on protein kinase C” value in the test on protein kinase C was “no effect”.

`CCCCCCCc1cc(O)cc(OC(=O)c2c(CCCCCCC)cc(O)cc2O[C@H]2O[C@H]([C@@H](O)CO)[C@@H](O)[C@@H]2O)c1` [ent-KS-501]: the “Concentration range inhibitory of CaM-sensitive Kinase II” value in test [1] is 10 to 40 µM. Also, the “Phosphorylation of Synapsin I site 2,3” value in test [1] (setting [3]) came to 0.018 pmole/mg protein/min; in test [1] (setting [4]) it was 0.018 pmole/mg protein/min; in test [1] (setting [5]), 0.076 pmole/mg protein/min; in test [1] (setting [6]), 0.021 pmole/mg protein/min; in the test with PKC (setting [11]), 0.015 pmole/mg protein/min; in the test on PKC (setting [4]), 0.014 pmole/mg protein/min. The “Phosphorylation of Synapsin I site 2,3” value in the test on PKC (setting [15]) came out at 0.067 pmole/mg protein/min; in the test on PKC (setting [17]), 0.02 pmole/mg protein/min; in the test with cAMP dependent kinase (setting [18]), 0.006 pmole/mg protein/min; in the test on cAMP dependent kinase (setting [20]), 0.010 pmole/mg protein/min; in the test with cAMP dependent kinase (setting [22]), 0.009 pmole/mg protein/min; in the test with cAMP dependent kinase (setting [24]), 0.008 pmole/mg protein/min. Further, the “Inhibitory activity against CaM-dependent kinases compared with cAMP-dependent kinase or protein kinase C” value in test [1] is on record as “more inhibitory activity against CaM-dependent kinases than against cAMP-dependent kinase or protein kinase C”. The “Phosphorylation of Synapsin I site 1” value with CaM KI (setting [7]) amounted to 0.023 pmole/mg protein/min; in the test on CaM KI (setting [8]), 0.019 pmole/mg protein/min; with CaM KI (setting [9]), 0.043 pmole/mg protein/min; in the test with CaM KI (setting [10]), 0.012 pmole/mg protein/min; in the test on PKC (setting [12]), 0.018 pmole/mg protein/min; in the test on PKC (setting [13]) it was 0.013 pmole/mg protein/min. The “Phosphorylation of Synapsin I site 1” value in the test with PKC (setting [14]) stood at 0.047 pmole/mg protein/min; in the test on PKC (setting [16]), 0.01 pmole/mg protein/min; with cAMP dependent kinase (setting [19]), 0.025 pmole/mg protein/min; in the test with cAMP dependent kinase (setting [21]) it was 0.017 pmole/mg protein/min; with cAMP dependent kinase (setting [23]), 0.049 pmole/mg protein/min; in the test with cAMP dependent kinase (setting [25]), 0.03 pmole/mg protein/min. Also, the “Concentration range inhibitory of Ca2+/CaM-sensitive phosphodiesterase” value in test [2] is 1 to 2 µM. In addition, the “Inhibitory effects on CaM-mediated enzyme activity” value in test [2] is “possess inhibitory activity”.

For `CCCCCCCc1cc(OC(=O)c2c(CCCCCCC)cc(O)cc2O[C@H]2O[C@H]([C@@H](O)CO)[C@@H](O)[C@@H]2O)cc(O)c1C(=O)O` [ent-KS-502], in test [2], the “Concentration range inhibitory of Ca2+/CaM-sensitive phosphodiesterase” value is “approximately 10 μM” and the “Inhibitory effects on CaM-mediated enzyme activity” value is “possess inhibitory activity”.
